For data set [1], the system named is Pseudomonas aeruginosa. The data set is described as follows: Antibacterial activity against Pseudomonas aeruginosa 264-101354 assessed as reduction in bacterial growth by measuring doxycycline MIC at 4 ug/ml incubated for 18 hrs in presence of doxycycline by broth microdilution assay (reference value: 64 ug/ml). The format is functional. The settings on record: dose 4 µg/ml. Background: In broth dilution the organism is exposed to a series of concentrations in liquid medium.

The subject of data set [2] is Pseudomonas aeruginosa. The data set can be described thus: Antibacterial activity against Pseudomonas aeruginosa 260-97103 infected in Galleria mellonella larvae assessed as survival of larvae at 100 mg/kg treated at 3 hrs post-infection in presence of doxycycline and measured after 24 hrs relative to control. Format: functional.
Data set [3] concerns Pseudomonas aeruginosa. The data set is described as follows: Antibacterial activity against Pseudomonas aeruginosa 259-96918 assessed as fractional inhibitory concentration index incubated for 18 hrs in presence of tigecycline by broth microdilution assay. Format: functional.
The test system of data set [4] is HepG2. The data set is described as follows: Cytotoxicity against human HepG2 cells assessed as cell viability at 50 uM incubated for 48 hrs in presence of doxycycline by prestoblue assay. The settings on record: hepg2, 48 h. The format is cell-based.
For data set [5], the system named is Pseudomonas aeruginosa. The data set can be described thus: Antibacterial activity against Pseudomonas aeruginosa 101243 assessed as fractional inhibitory concentration incubated for 18 hrs in presence of minocycline by broth microdilution assay. Format: functional.
Data set [6] has as its system Pseudomonas aeruginosa. The data set is described as follows: Antibacterial activity against Pseudomonas aeruginosa 91433 assessed as fractional inhibitory concentration index incubated for 18 hrs in presence of rifampicin by broth microdilution assay. The format is functional.
Data set [7] deals with Pseudomonas aeruginosa. The data set is described as follows: Potentiation of chloramphenicol-induced bactericidal activity against Pseudomonas aeruginosa PAO1 assessed as reduction in bacterial colonies incubated for >= 24 hrs in LB medium in presence of chloramphenicol followed by plating on agar plate and measured after 20 hrs by time-kill assay. The conditions noted are these: dose 4.9-9.8 µM, time hrs >=44. The format is functional, organism-based.

Data set [8] deals with Pseudomonas aeruginosa. The data set can be described thus: Potentiation of chloramphenicol-induced antibacterial activity against Pseudomonas aeruginosa 264-101354 assessed as fold change in chloramphenicol MIC at 9.8 uM incubated for 18 hrs in presence of chloramphenicol by broth microdilution assay relative to control. Format: functional.
Data set [9] relates to Pseudomonas aeruginosa. The data set is described as follows: Antibacterial activity against Pseudomonas aeruginosa 262-101856 assessed as potentiation of chloramphenicol-induced antibacterial activity by measuring chloramphenicol MIC at 9.8 uM incubated for 18 hrs in presence of chloramphenicol by broth microdilution assay (reference value: 2048 ug/ml). The format is functional.

Data set [10] concerns Pseudomonas aeruginosa. The data set can be described thus: Antibacterial activity against Pseudomonas aeruginosa 262-101856 assessed as potentiation of doxycycline-induced antibacterial activity by measuring doxycycline MIC at 9.8 uM incubated for 18 hrs in presence of doxycycline by broth microdilution assay (reference value: 1024 ug/ml). The format is functional.
Data set [11] deals with Pseudomonas aeruginosa. The data set is described as follows: Potentiation of doxycycline-induced antibacterial activity against Pseudomonas aeruginosa 114228 assessed as fold change in doxycycline MIC at 9.8 uM incubated for 18 hrs in presence of doxycycline by broth microdilution assay relative to control. Format: functional.
The subject of data set [12] is Pseudomonas aeruginosa. The data set is described as follows: Potentiation of doxycycline-induced antibacterial activity against Pseudomonas aeruginosa PAO200 harboring mexA-mexB-oprM deletion mutant assessed as fold change in doxycycline MIC at <=9.8 uM incubated for 18 hrs in presence of doxycycline by broth microdilution assay. The format is functional. The conditions noted are these: dose microM <=9.8.

The test system of data set [13] is Pseudomonas aeruginosa. The data set can be described thus: Antibacterial activity against Pseudomonas aeruginosa 264-101354 assessed as fractional inhibitory concentration incubated for 18 hrs in presence of rifampicin by broth microdilution assay. Format: functional.
Data set [14] deals with Pseudomonas aeruginosa. The data set is described as follows: Antibacterial activity against Pseudomonas aeruginosa 259-96918 assessed as fractional inhibitory concentration index incubated for 18 hrs in presence of rifampicin by broth microdilution assay. The format is functional.
Data set [15] relates to Pseudomonas aeruginosa. The data set can be described thus: Antibacterial activity against Pseudomonas aeruginosa 260-97103 assessed as fractional inhibitory concentration incubated for 18 hrs in presence of tigecycline by broth microdilution assay. The format is functional.
Data set [16] has as its system Pseudomonas aeruginosa. The data set can be described thus: Antibacterial activity against Pseudomonas aeruginosa 260-97103 assessed as fractional inhibitory concentration index incubated for 18 hrs in presence of tigecycline by broth microdilution assay. Format: functional.
The test system of data set [17] is Pseudomonas aeruginosa. The data set can be described thus: Antibacterial activity against Pseudomonas aeruginosa 260-97103 infected in Galleria mellonella larvae assessed as survival of larvae at 75 mg/kg treated at 3 hrs post-infection in presence of chloramphenicol and measured after 18 hrs relative to control. The format is functional.
In data set [18] the test system is Pseudomonas aeruginosa. The data set can be described thus: Antibacterial activity against Pseudomonas aeruginosa 101243 assessed as potentiation of chloramphenicol-induced antibacterial activity by measuring chloramphenicol MIC at 9.8 uM incubated for 18 hrs in presence of chloramphenicol by broth microdilution assay (reference value: 1 ug/ml). Format: functional.

Data set [19] concerns Pseudomonas aeruginosa. The data set is described as follows: Antibacterial activity against Pseudomonas aeruginosa 101885 assessed as fractional inhibitory concentration incubated for 18 hrs in presence of tigecycline by broth microdilution assay. Format: functional.
Data set [20] relates to Pseudomonas aeruginosa. The data set is described as follows: Potentiation of chloramphenicol-induced antibacterial activity against Pseudomonas aeruginosa 101243 assessed as fold change in chloramphenicol MIC at 9.8 uM incubated for 18 hrs in presence of chloramphenicol by broth microdilution assay relative to control. Format: functional.
The subject of data set [21] is Pseudomonas aeruginosa. The data set is described as follows: Antibacterial activity against Pseudomonas aeruginosa 264-101354 assessed as potentiation of chloramphenicol-induced antibacterial activity by measuring chloramphenicol MIC at 9.8 uM incubated for 18 hrs in presence of chloramphenicol by broth microdilution assay (reference value: 4096 ug/ml). The format is functional.

Data set [22] relates to Pseudomonas aeruginosa. The data set can be described thus: Antibacterial activity against Pseudomonas aeruginosa 260-97103 infected in Galleria mellonella larvae assessed as survival of larvae treated at 3 hrs post-infection in presence of doxycycline and measured every 6 hrs for 36 hrs. Format: functional, organism-based. The settings on record: dose 75-100 mg/kg.
Data set [23] deals with Pseudomonas aeruginosa. The data set can be described thus: Antibacterial activity against Pseudomonas aeruginosa 264-101354 assessed as fractional inhibitory concentration index incubated for 18 hrs in presence of rifampicin by broth microdilution assay. The format is functional.
In data set [24] the test system is Pseudomonas aeruginosa. The data set is described as follows: Potentiation of chloramphenicol-induced antibacterial activity against Pseudomonas aeruginosa 114228 assessed as fold change in chloramphenicol MIC at 7.6 uM incubated for 18 hrs in presence of chloramphenicol by broth microdilution assay relative to control. Format: functional.
Data set [25] has as its system Klebsiella pneumoniae. The data set can be described thus: Potentiation of chloramphenicol-induced antibacterial activity against Klebsiella pneumoniae ATCC 16381 assessed as fold change in chloramphenicol MIC at 7.6 uM incubated for 18 hrs in presence of chloramphenicol by broth microdilution assay relative to control. Format: functional.
Data set [26] relates to Pseudomonas aeruginosa. The data set is described as follows: Antibacterial activity against Pseudomonas aeruginosa 260-97103 assessed as potentiation of chloramphenicol-induced antibacterial activity by measuring chloramphenicol MIC at 7.6 uM incubated for 18 hrs in presence of chloramphenicol by broth microdilution assay (reference value: 128 ug/ml). The format is functional.

Data set [27] deals with Acinetobacter baumannii. The data set can be described thus: Potentiation of doxycycline-induced antibacterial activity against Acinetobacter baumannii ATCC 17978 assessed as fold change in doxycycline MIC at 7.6 uM incubated for 18 hrs in presence of doxycycline by broth microdilution assay relative to control. Format: functional.
Data set [28] concerns Pseudomonas aeruginosa. The data set can be described thus: Antibacterial activity against Pseudomonas aeruginosa 262-101856 assessed as reduction in bacterial growth by measuring chloramphenicol MIC at 8 ug/ml incubated for 18 hrs in presence of chloramphenicol by broth microdilution assay (reference value: 2048 ug/ml). The format is functional. The conditions noted are these: dose 8 µg/ml.

Data set [29] relates to Pseudomonas aeruginosa. The data set is described as follows: Antibacterial activity against Pseudomonas aeruginosa 259-96918 assessed as fractional inhibitory concentration incubated for 18 hrs in presence of chloramphenicol by broth microdilution assay. The format is functional.
In data set [30] the test system is Pseudomonas aeruginosa. The data set is described as follows: Antibacterial activity against wild type Pseudomonas aeruginosa PAO1 assessed as reduction in bacterial growth by measuring chloramphenicol MIC at 0.25 ug/ml incubated for 18 hrs in presence of chloramphenicol by broth microdilution assay (reference value: 32 ug/ml). Format: functional. The conditions noted are these: dose 0.25 µg/ml.

What is called MIC is the lowest concentration that inhibits growth of the organism. As for `CO[C@H]1/C=C/O[C@@]2(C)Oc3c(C)c(O)c4c(O)c(c(/C=N/N5CCN(C)CC5)c(O)c4c3C2=O)NC(=O)/C(C)=C\C=C\[C@H](C)[C@H](O)[C@@H](C)[C@@H](O)[C@@H](C)[C@H](OC(C)=O)[C@@H]1C` [RIFAMPIN], the MIC in data set [1] was determined as 32 µg/mL.

In the case of `CO[C@H]1/C=C/O[C@@]2(C)Oc3c(C)c(O)c4c(O)c(c(/C=N/N5CCN(Cc6cn(CCCCCCO[C@@H]7[C@@H](O[C@H]8O[C@H](CO)[C@@H](O)[C@H](N)[C@H]8O)[C@H](N)C[C@H](N)[C@H]7O[C@H]7O[C@H](CN)[C@@H](O)C[C@H]7N)nn6)CC5)c(O)c4c3C2=O)NC(=O)/C(C)=C\C=C\[C@H](C)[C@H](O)[C@@H](C)[C@@H](O)[C@@H](C)[C@H](OC(C)=O)[C@@H]1C.Cl.Cl.Cl.Cl.Cl`, the survival at 100 mg/kg in [2] was 75%. Further, the “fractional inhibitory concentration index (FICI)” value is less than 0.25 in [3]; 1.13 in [6]; less than 0.25 in [14]; less than 0.16 in [16]; 0.27 in data set [23]. The Activity result in [4] is “Non-Toxic”; in data set [7] it was “Dose-dependent effect”; in [22], “Dose-dependent effect”. The FIC is reported as less than 0.063 in data set [5], 0.016 in [13], less than 0.125 in data set [15] and 0.063 in data set [19]. In addition, the “fold change (FC)” value in data set [8] is on record as 4; in data set [11], 4; in data set [12] it was 8; in data set [20], 4. Further, the MIC was 128 µg/mL in data set [9], 8 µg/mL in data set [10], 0.125 µg/mL in [18] and 128 µg/mL in [21]. Besides, the survival at 75 mg/kg in data set [17] came out at 55%.

For `CO[C@H]1/C=C/O[C@@]2(C)Oc3c(C)c(O)c4c(O)c(c(/C=N/N5CCN(Cc6cn(CCCCCCCCCCCCO[C@@H]7[C@@H](O[C@H]8O[C@H](CO)[C@@H](O)[C@H](N)[C@H]8O)[C@H](N)C[C@H](N)[C@H]7O[C@H]7O[C@H](CN)[C@@H](O)C[C@H]7N)nn6)CC5)c(O)c4c3C2=O)NC(=O)/C(C)=C\C=C\[C@H](C)[C@H](O)[C@@H](C)[C@@H](O)[C@@H](C)[C@H](OC(C)=O)[C@@H]1C.O=C(O)C(F)(F)F.O=C(O)C(F)(F)F.O=C(O)C(F)(F)F.O=C(O)C(F)(F)F.O=C(O)C(F)(F)F`, the entries for the “fold change (FC)” value in [24], in data set [25] and in [27] were 4, 0 and 0, respectively. In data set [26], the MIC turned out to be 0.5 µg/mL.

`NC[C@H]1O[C@H](O[C@H]2[C@H](O)[C@@H](O[C@H]3O[C@H](CO)[C@@H](O)[C@H](N)[C@H]3O)[C@H](N)C[C@@H]2N)[C@H](N)C[C@@H]1O` [TOBRAMYCIN]: the MIC in data set [28] was found to be 2050 µg/mL; in data set [30], 32 µg/mL. The FIC in data set [29] is given as 0.25.

(Values after ChEMBL document CHEMBL4715829, “Heterodimeric Rifampicin-Tobramycin conjugates break intrinsic resistance of Pseudomonas aeruginosa to doxycycline and chloramphenicol in vitro and in a Galleria mellonella in vivo model” (Eur J Med Chem, 2019).)
